Results reported in patent US20190389843A1, “PYRROLE mTORC INHIBITORS AND USES THEREOF” (Navitor Pharmaceuticals, Inc., priority 2016, published 2019).
Counter-ions that a name gives are not always drawn.

Columns and labels:
[1] = system: pAKT in MCF7 (measure of mTORC2 activity); test: AlphaLISA Ultra pAKT assay; assay type: cell-based; settings: Homo sapiens, MCF7, 2 h, MCF-7 cells, 2 hours compound incubation
How it was run: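 MCF7 cells, 16,000-20,000 per well, treated with compound for 2 h at 0.5% final DMSO, then lysed. Phospho-AKT, as a readout of mTORC2 activity, measured by AlphaLISA Ultra with acceptor beads and then donor beads, 2 h each.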

[2] = system: pS6K1 in MCF7 (measure of mTORC1 activity); test: AlphaLISA Ultra pS6K1 assay; assay type: cell-based; settings: Homo sapiens, MCF7, 2 h, MCF-7 cells, 2 hours compound incubation
How it was run: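 MCF7 cells, refreshed medium 2 h, treated with compound 2 h at 0.5% DMSO final, then lysed. Phospho-S6K1 in lysates detected by AlphaLISA Ultra (acceptor beads 2 h, donor beads 2 h), read as Alpha signal on a multimode reader.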

| Compound | IC50 [1] [nM] | IC50 [2] [nM] |
| --- | --- | --- |
| Cn1cc(CNC2CCN(c3ccccc3Cl)CC2)cc1C(=O)N1CCN(c2ccc(F)cc2)CC1 [Example I-129] | > 10000 | 1000 to 3000 |
| Cn1cc(CN2CCC(Nc3ccccc3Cl)CC2)cc1C(=O)N1CCN(c2ccc(F)cc2)CC1 [Example I-130] | > 10000 | 1000 to 3000 |
| Cn1cc(CN2CC3CN(c4ccccc4Cl)CC3C2)cc1C(=O)N1CCN(c2ccc(F)cc2)CC1 (stereo not shown) [Example I-131] | > 10000 | 3000 to 10000 |
| Cn1cc(CN2CCN(c3ccccc3Cl)CC2)cc1C(=O)N1CCN(c2cc(F)c(F)c(F)c2)CC1 [Example I-132, (4-((4-(2-Chlorophenyl)piperazin-1-yl)methyl)-1-methyl-1H-pyrrol-2-yl)(4-(3,4,5-trifluorophenyl)piperazin-1-yl)methanone trifluoroacetate salt] | > 10000 | 3000 to 10000 |
| C[C@@H]1CN(c2ccccc2)CCN1C(=O)c1cc(CN2CCN(c3ccccc3Cl)CC2)cn1C [Example I-137, (R)-(4-((4-(2-chlorophenyl)piperazin-1-yl)methyl)-1-methyl-1H-pyrrol-2-yl)(2-methyl-4-phenylpiperazin-1-yl)methanone] | > 10000 | 3000 to 10000 |
| COCCn1cc(CN2CCN(c3ccccc3C(F)(F)F)CC2)cc1C(=O)N1CCN(c2ccccc2)CC1 [Example I-139] | > 10000 | 3000 to 10000 |
| COCCn1cc(CN2CCN(c3ccccc3Cl)CC2)cc1C(=O)N1CCN(c2ccc(F)cc2)CC1 [Example I-140] | > 10000 | 1000 to 3000 |
| COCCn1cc(CN2CCN(c3ccccc3Cl)CC2)cc1C(=O)N1CCN(c2ccccc2F)CC1 [Example I-141] | > 10000 | 3000 to 10000 |
| COCCCn1cc(CN2CCN(c3ccccc3Cl)CC2)cc1C(=O)N1CCN(c2ccccc2)CC1 [Example I-145] | > 10000 | 3000 to 10000 |
| CCCCn1cc(CN2CCN(c3ccccc3Cl)CC2)cc1C(=O)N1CCN(c2ccccc2)CC1 [Example I-146] | > 10000 | 3000 to 10000 |
| O=C(c1cc(CN2CCN(c3ccccc3Cl)CC2)cn1CCCOC1CCCCO1)N1CCN(c2ccccc2)CC1 (stereo not shown) [Example I-147] | > 10000 | 3000 to 10000 |
| CC(=O)OCCn1cc(CN2CCN(c3ccccc3Cl)CC2)cc1C(=O)N1CCN(c2ccccc2)CC1 [Example I-148] | > 10000 | 1000 to 3000 |
| COCCn1cc(CN2CCN(c3ccccc3)CC2)cc1C(=O)N1CCN(c2ccccc2C#N)CC1 [Example I-149] | > 10000 | 3000 to 10000 |
| COCCn1cc(CN2CCN(c3ccccc3C#N)CC2)cc1C(=O)N1CCN(c2ccccc2OC)CC1 [Example I-150] | > 10000 | 3000 to 10000 |
| COCCn1cc(CN2CCN(c3ccccc3C#N)CC2)cc1C(=O)N1CCN(c2ccccc2C#N)CC1 [Example I-151] | > 10000 | 1000 to 3000 |
| COCCn1cc(CN2CCN(c3ccccc3Cl)CC2)cc1C(=O)N1CCN(c2ccccc2)CC1 [Example I-152] | > 10000 | 1000 to 3000 |

Second part, the compound after the results:

| IC50 [1] [nM] | IC50 [2] [nM] | Compound |
| --- | --- | --- |
| > 10000 | 1000 to 3000 | O=C(c1cc(CN2CCN(c3ccccc3Cl)CC2)cn1CC(F)(F)F)N1CCN(c2ccccc2)CC1 [Example I-114, (4-((4-(2-Chlorophenyl)piperazin-1-yl)methyl)-1-(2,2,2-trifluoroethyl)-1H-pyrrol-2-yl)(4-phenylpiperazin-1-yl)methanone trifluoroacetate salt] |
| > 3000 | 10 to 1000 | Cc1c(CN2CCN(c3ccccc3Cl)CC2)cc(C(=O)N2CCN(c3ccc(F)cc3)CC2)n1C [Example I-115, (4-((4-(2-Chlorophenyl)piperazin-1-yl)methyl)-1,5-dimethyl-1H-pyrrol-2-yl)(4-(4-fluorophenyl)piperazin-1-yl)methanone] |
| > 1000 | 10 to 1000 | Cc1c(CN2CCN(c3ccccc3Cl)CC2)cc(C(=O)N2CCN(c3ccc(F)c(F)c3)C[C@@H]2C)n1C [Example I-116, (S)-(4-((4-(2-chlorophenyl)piperazin-1-yl)methyl)-1,5-dimethyl-1H-pyrrol-2-yl)(4-(3,4-difluorophenyl)-2-methylpiperazin-1-yl)methanone] |
| > 3000 | 10 to 1000 | C[C@H]1CN(c2ccc(F)c(F)c2)CCN1C(=O)c1cc(CN2CCN(c3ccccc3Cl)CC2)cn1C [Example I-117, (S)-(4-((4-(2-chlorophenyl)piperazin-1-yl)methyl)-1-methyl-1H-pyrrol-2-yl)(4-(3,4-difluorophenyl)-2-methylpiperazin-1-yl)methanone] |
| > 3000 | 10 to 1000 | Cc1c(CN2CCN(c3ccccc3Cl)CC2)cc(C(=O)N2CCN(c3cccc(Cl)c3)CC2)n1C [Example I-118, (4-(3-Chlorophenyl)piperazin-1-yl)(4-((4-(2-chlorophenyl)piperazin-1-yl)methyl)-1,5-dimethyl-1H-pyrrol-2-yl)methanone] |
| > 3000 | 1000 to 3000 | Cn1cc(CN2CCN(c3ncccc3Cl)CC2)cc1C(=O)N1CCN(c2ccccc2)CC1 [Example I-119, (4-((4-(3-chloropyridin-2-yl)piperazin-1-yl)methyl)-1-methyl-1H-pyrrol-2-yl)(4-phenylpiperazin-1-yl)methanone] |
| > 1000 | 10 to 1000 | Cc1c(CN2CCN(c3ccccc3Cl)CC2)cc(C(=O)N2CCN(c3cccc(C#N)c3)C[C@@H]2C)n1C [Example I-120, (S)-3-(4-(4-((4-(2-chlorophenyl)piperazin-1-yl)methyl)-1,5-dimethyl-1H-pyrrole-2-carbonyl)-3-methylpiperazin-1-yl)benzonitrile] |
| > 1000 | 10 to 1000 | C[C@H]1CN(c2ccccc2C#N)CCN1C(=O)c1cc(CN2CCN(c3ccccc3Cl)CC2)cn1C [Example I-121, (S)-2-(4-(4-((4-(2-chlorophenyl)piperazin-1-yl)methyl)-1-methyl-1H-pyrrole-2-carbonyl)-3-methylpiperazin-1-yl)benzonitrile] |
| > 1000 | 10 to 1000 | Cn1cc(CN2CCN(c3ccccc3Cl)CC2)cc1C(=O)N1CCN(c2ccccn2)CC1 [Example I-122] |
| > 1000 | 10 to 1000 | C[C@H]1CN(c2cccc(C#N)c2)CCN1C(=O)c1cc(CN2CCN(c3ccccc3Cl)CC2)cn1C [Example I-123, (S)-3-(4-(4-((4-(2-chlorophenyl)piperazin-1-yl)methyl)-1-methyl-1H-pyrrole-2-carbonyl)-3-methylpiperazin-1-yl)benzonitrile] |
| > 3000 | 10 to 1000 | Cn1cc(CN2CCN(c3ccccc3C#N)CC2)cc1C(=O)N1CCN(c2ccccc2)CC1 [Example I-124, 2-(4-((1-methyl-5-(4-phenylpiperazine-1-carbonyl)-1H-pyrrol-3-yl)methyl)piperazin-1-yl)benzonitrile] |
| > 10000 | 3000 to 10000 | Cn1cc(CN2CCN(c3ccccc3C(F)(F)F)CC2)cc1C(=O)N1CCN(c2ccccc2)CC1 [Example I-126, 1-{[1-Methyl-5-(4-phenylpiperazine-1-carbonyl)-1H-pyrrol-3-yl]methyl}-4-[2-(trifluoromethyl)phenyl]piperazine] |
| > 10000 | 1000 to 3000 | Cn1cc(CN2CCN(c3ccc(F)cc3Cl)CC2)cc1C(=O)N1CCN(c2ccc(F)cc2)CC1 [Example I-127] |
| > 10000 | 1000 to 3000 | Cn1cc(CN2CCC3(CCN(c4ccccc4Cl)C3)C2)cc1C(=O)N1CCN(c2ccc(F)cc2)CC1 (stereo not shown) [Example I-128] |
| > 1000 | 10 to 1000 | Cc1c(CN2CCN(c3ccccc3Cl)CC2)cc(C(=O)N2CCN(c3ccccc3)CC2)n1C [Example I-133, (4-((4-(2-Chlorophenyl)piperazin-1-yl)methyl)-1,5-dimethyl-1H-pyrrol-2-yl)(4-phenylpiperazin-1-yl)methanone] |
| > 3000 | 1000 to 3000 | Cc1ccccc1N1CCN(Cc2cc(C(=O)N3CCN(c4ccccc4)CC3)n(C)c2)CC1 [Example I-134, (1-methyl-4-((4-o-tolylpiperazin-1-yl)methyl)-1H-pyrrol-2-yl)(4-phenylpiperazin-1-yl)methanone] |
| > 3000 | 1000 to 3000 | Cn1cc(CN2CCN(c3ccccc3Cl)CC2)cc1C(=O)N1CCN(c2ccc(F)cc2)CC1 [Example I-135] |
| > 3000 | 1000 to 3000 | C[C@H]1CN(c2ccccc2)CCN1C(=O)c1cc(CN2CCN(c3ccccc3Cl)CC2)cn1C [Example I-136, (S)-(4-((4-(2-chlorophenyl)piperazin-1-yl)methyl)-1-methyl-1H-pyrrol-2-yl)(2-methyl-4-phenylpiperazin-1-yl)methanone] |
| > 3000 | 1000 to 3000 | Cn1cc(CN2CCN(c3ccccc3Cl)CC2)cc1C(=O)N1CCN(c2cccc(C#N)c2)CC1 [Example I-138, 3-(4-(4-((4-(2-chlorophenyl)piperazin-1-yl)methyl)-1-methyl-1H-pyrrole-2-carbonyl)piperazin-1-yl)benzonitrile] |
| > 3000 | 1000 to 3000 | O=C(c1cc(CN2CCN(c3ccccc3Cl)CC2)cn1CCO)N1CCN(c2ccccc2)CC1 [Example I-142] |
| > 3000 | 10 to 1000 | CCn1cc(CN2CCN(c3ccccc3Cl)CC2)cc1C(=O)N1CCN(c2ccccc2)CC1 [Example I-143] |
| > 3000 | 1000 to 3000 | Cn1cc(CN2CCN(c3ccccc3Cl)CC2)cc1C(=O)N1CCN(c2ccccc2)CC1 [Example I-144] |
